The term Ki denotes a dissociation constant, usually derived from enzyme kinetics or from competition with a known ligand. For orientation: pA2 means the negative logarithm of the molar antagonist concentration that doubles the agonist concentration needed for the same response. A low value points to lower antagonist potency.

14 compounds from ChEMBL document CHEMBL1135081, “Insertion of 2-carboxysuccinate and tricarballylic acid fragments into cyclic-pseudopeptides: new antagonists for the human tachykinin NK-2 receptor” (Bioorg Med Chem Lett, 2002) can be followed below.

In test [1] the target is T1, Substance-K receptor (Homo sapiens, UniProt P21452).
T1 sequence (P21452 whole entry): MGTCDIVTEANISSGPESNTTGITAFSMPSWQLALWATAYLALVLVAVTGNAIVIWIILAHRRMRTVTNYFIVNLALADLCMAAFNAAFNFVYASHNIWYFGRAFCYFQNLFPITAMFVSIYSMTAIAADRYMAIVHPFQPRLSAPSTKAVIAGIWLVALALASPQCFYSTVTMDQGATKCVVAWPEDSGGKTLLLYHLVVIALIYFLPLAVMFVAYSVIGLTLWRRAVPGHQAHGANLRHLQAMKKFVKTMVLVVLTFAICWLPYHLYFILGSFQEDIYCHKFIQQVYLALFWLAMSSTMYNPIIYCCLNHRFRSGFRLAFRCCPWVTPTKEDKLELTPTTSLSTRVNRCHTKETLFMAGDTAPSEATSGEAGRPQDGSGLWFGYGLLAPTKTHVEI
Briefly: Displacement of [125I]NKA from human Tachykinin receptor 2 expressed in CHO cells. The format is cell-based.

Test [2] concerns the target T2, Substance-K receptor (Oryctolagus cuniculus, UniProt P79218).
T2 sequence (P79218 whole entry): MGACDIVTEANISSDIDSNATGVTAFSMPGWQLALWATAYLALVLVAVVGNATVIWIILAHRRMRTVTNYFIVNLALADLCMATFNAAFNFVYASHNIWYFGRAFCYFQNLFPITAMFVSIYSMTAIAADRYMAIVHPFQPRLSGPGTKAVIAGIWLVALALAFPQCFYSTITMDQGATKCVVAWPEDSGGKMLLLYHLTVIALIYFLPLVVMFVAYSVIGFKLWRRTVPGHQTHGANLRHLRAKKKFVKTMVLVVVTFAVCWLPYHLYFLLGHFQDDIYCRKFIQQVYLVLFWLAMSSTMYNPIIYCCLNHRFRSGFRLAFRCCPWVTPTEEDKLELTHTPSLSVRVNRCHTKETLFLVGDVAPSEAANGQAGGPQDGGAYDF
In words: In vitro functional activity towards Neurokinin NK2 receptor on isolated rabbit urinary bladder (RUB). To be noted: for Kb: read-out: pA2 (converted).

`O=C1C[C@@H](CC(=O)N2CCC(N3CCCCC3)CC2)C(=O)NC[C@@H](Cc2ccccc2)NC(=O)[C@@H](Cc2ccccc2)NC(=O)[C@H](Cc2c[nH]c3ccccc23)N1` had a Ki on Substance-K receptor [1] of 1.58 nM. Further, the Kb at Substance-K receptor [2] was 2.51 nM. `O=C1C[C@H](CC(=O)N2CCC(N3CCCCC3)CC2)C(=O)NC[C@@H](Cc2ccccc2)NC(=O)[C@@H](Cc2ccccc2)NC(=O)[C@H](Cc2c[nH]c3ccccc23)N1` showed an inhibition constant (Ki) on Substance-K receptor [1] of 5.01 nM. On Substance-K receptor [2], the Kb is 3.98 nM. For `O=C1CC(C(=O)N2CCN(CCOCCO)CC2)C(=O)NC[C@@H](Cc2ccccc2)NC(=O)[C@@H](Cc2ccccc2)NC(=O)[C@H](Cc2c[nH]c3ccccc23)N1` (some centres not stated) the same measures were 1.58 nM and 1 nM. The like results for `CC(=O)NC1C(NC(=O)C[C@@H]2CC(=O)N[C@@H](Cc3c[nH]c4ccccc34)C(=O)N[C@H](Cc3ccccc3)C(=O)N[C@H](Cc3ccccc3)CNC2=O)OC(CO)C(O)C1O` (some centres not stated) were, in that order, 7.94 nM and 6.31 nM. For `CC(=O)NC1C(NC(=O)C2CC(=O)N[C@@H](Cc3c[nH]c4ccccc34)C(=O)N[C@H](Cc3ccccc3)C(=O)N[C@H](Cc3ccccc3)CNC2=O)OC(CO)C(O)C1O` (some centres not stated) the same measures were 2.51 nM and 3.98 nM. `CN(C)CCNC(=O)C[C@@H]1CC(=O)N[C@@H](Cc2c[nH]c3ccccc23)C(=O)N[C@H](Cc2ccccc2)C(=O)N[C@H](Cc2ccccc2)CNC1=O` had a Ki on Substance-K receptor [1] of 6.31 nM. Also, the Kb at Substance-K receptor [2] is 3.16 nM. Regarding `CC(=O)NC1C(NC(=O)C[C@H]2CC(=O)N[C@@H](Cc3c[nH]c4ccccc34)C(=O)N[C@H](Cc3ccccc3)C(=O)N[C@H](Cc3ccccc3)CNC2=O)OC(CO)C(O)C1O` (some centres not stated), the affinity at Substance-K receptor [1], expressed as Ki, was 6.31 nM. The Kb on Substance-K receptor [2] is 7.94 nM.

Take `O=C1C[C@@H](CC(=O)N2CCOCC2)C(=O)NCC(Cc2ccccc2)NC(=O)C(Cc2ccccc2)NC(=O)[C@H](Cc2c[nH]c3ccccc23)N1` (single isomer, unassigned): the inhibition constant (Ki) on Substance-K receptor [1] was 0.631 nM. The Kb on Substance-K receptor [2] was 1 nM.

The compound `O=C(C[C@@H]1CC(=O)N[C@@H](Cc2c[nH]c3ccccc23)C(=O)NC(Cc2ccccc2)C(=O)NC(Cc2ccccc2)CNC1=O)NC1OC(CO)C(O)C(O)C1O` (single isomer, unassigned) had a Ki on Substance-K receptor [1] of 10 nM. Also, on Substance-K receptor [2], the Kb was 6.31 nM. Consider `O=C1CC(C(=O)N2CCOCC2)C(=O)NCC(Cc2ccccc2)NC(=O)C(Cc2ccccc2)NC(=O)[C@H](Cc2c[nH]c3ccccc23)N1` (single isomer, unassigned), for which the affinity at Substance-K receptor [1], expressed as Ki, was 0.126 nM. In addition, the Kb at Substance-K receptor [2] was 0.631 nM. For `O=C1CC(C(=O)NC(CO)CO)C(=O)NCC(Cc2ccccc2)NC(=O)C(Cc2ccccc2)NC(=O)[C@H](Cc2c[nH]c3ccccc23)N1` (single isomer, unassigned) the same measures were 3.98 nM and 3.16 nM. On to `O=C1CCC(=O)N[C@@H](Cc2c[nH]c3ccccc23)C(=O)NC(Cc2ccccc2)C(=O)N[C@H](Cc2ccccc2)CN1` (single isomer, unassigned), for which the Kb at Substance-K receptor [2] was 5.01 nM.

In turn, `O=C1CC(C(=O)N2CCC(N3CCCCC3)CC2)C(=O)NCC(Cc2ccccc2)NC(=O)C(Cc2ccccc2)NC(=O)[C@H](Cc2c[nH]c3ccccc23)N1` (single isomer, unassigned; 8e) had a Ki at Substance-K receptor [1] of 0.0501 nM. Further, the Kb at Substance-K receptor [2] is 0.794 nM. For the compound `O=C1CC(C(=O)N2CCC(N3CCCCC3)CC2)C(=O)NCC(Cc2ccccc2)NC(=O)C(Cc2ccccc2)NC(=O)[C@H](Cc2c[nH]c3ccccc23)N1` (single isomer, unassigned; 8f), on Substance-K receptor [1], the Ki is 0.316 nM. Moreover, the pA2 on Substance-K receptor [2] is given as 9.1.
